Structure (SMILES)	melting point
CCCCCCCCCCCCCCOc1ccccc1NC(=O)c1cc(Sc2nnnn2-c2cccc(C(=O)OCC)c2)c2ccccc2c1O	88 to 90 °C
COc1ccc(CC(C(N)=O)S(C)(=O)=O)cc1C(=O)NCc1ccc(C(F)(F)F)cc1 (stereo not given)	219 to 220 °C
O=C(Nc1cccnc1)NC(NC(=O)c1ccccc1)C(Cl)(Cl)Cl (stereo not given)	214 to 215 °C
O=C(Cl)c1ccc(CBr)cc1	56 to 58 °C
Nc1ccc(Oc2ccc([N+](=O)[O-])cc2)cn1	132 to 135 °C
COc1ccc2c(ccc3c4cc5c(cc4nnc23)OCO5)c1	258 to 260 °C
OC12C=C(C3NCCc4c3[nH]c3ccccc43)C3CCN(CCCCC=CCC1)CC31CC3C=CCCCCN3C21 (stereo not given)	165 to 168 °C
CCC1c2cccn2-c2ccc(F)cc2N1S(=O)(=O)c1ccc(O)c(C)c1 (stereo not given)	175 to 177 °C
COc1ccc(-c2nc(N)n3nc(-c4ccco4)nc3n2)cc1OC	205 to 208 °C
Cc1nn(C)c2ncc(C(=O)O)c(NCS(=O)(=O)c3ccc(F)cc3)c12	275 to 276 °C
COC(=O)[C@@]12CO[C@@H](C(C)(C)C)N1C(=O)[C@](Cc1ccccc1)(C(=O)O)C2	> 133 °C
O=C1CCc2ccc(OCCCCN3CCN(c4cccc5cc(Cl)ccc45)CC3)nc2N1	215 to 216 °C
COC(=O)NN=Cc1ccc(Oc2ccc(F)cc2)cc1	109 to 111 °C
CC1(C)CC(=O)c2c(NCCCn3ccnc3)sc(-c3cc[nH]n3)c2C1	85 °C
O=C1NC(=O)C(Cc2ccc(O)c(C(=O)NCc3ccc(C(F)(F)F)cc3)c2)S1 (stereo not given)	146 to 148 °C
C=C1CCC2C3CCC4CC(O)C(OCC)CC4(C)C3C(=NO)CC12C (stereo not given)	97 to 99 °C
O=C(O)C1CCCc2sc(=O)[nH]c21 (stereo not given)	192 °C
CN1CCN(c2ccc3nnn(Cc4ccc5ncccc5c4)c3n2)CC1	131 to 133 °C
C(=Cc1ccnc2[nH]c3ccccc3c12)c1ccccc1	> 220 °C
CCCCCN(CCC12CC3CC(CC(C3)C1)C2)C(=O)NC(C)CCc1ccncc1 (stereo not given)	128 to 129 °C
N#CCOc1cccc2[nH]c3ccccc3c12	120 °C
CCCCOC(=O)C=Cc1c(-c2ccccc2)nn2ccccc12	80 to 82 °C
NC(=O)Cc1nn(-c2ccccn2)c2[nH]c3ccccc3c(=O)c12	302 to 305 °C
CCOc1ccccc1Nc1ncc(C(=O)O)c(=O)[nH]1	226 to 228 °C
CSc1nnc(Cc2cccnc2)c(=O)[nH]1	215 to 216 °C

Structure (SMILES)	melting point
O=c1[nH]c2ccccc2n1CCCN1CCC(c2noc3cc(F)ccc23)CC1	175 to 177 °C
COc1ccc(Oc2cccc(-c3nnc(Nc4ccc(Cl)c(Cl)c4)s3)c2)cc1	198 to 199 °C
O=c1oc2cccc(O)c2c(OCCN2CCOCC2)c1-c1ccccc1	206 °C
CCCCSc1cc([N+](=O)[O-])cc2c1C(=O)OC2=O	95 to 97 °C
O=C(Nc1nc(C(Cl)(Cl)Cl)ns1)c1ccccc1F	149 °C
CS(=O)(=O)N1CCC(NC(=O)N(CCCN2CCC(Cc3ccccc3)CC2)c2ccccc2)CC1	158 to 160 °C
CCn1c(=O)c2c(nc(/C=C/c3ccc(OCCCCN=[N+]=[N-])cc3)n2C)n(CC)c1=O	158 to 159 °C
C=CCNc1nc2c(c(N3CCN(C)CC3)n1)CCCN2CC=C	81 °C
FC(F)(F)c1cc(CO[C@@H]2CCCN(Cc3nc4ccccc4[nH]3)[C@@H]2c2ccccc2)cc(C(F)(F)F)c1 (relative stereo)	152 to 153 °C
O=C(CCN1C[C@@H](O)[C@H](Oc2ccccc2)C1)c1ccc(F)cc1 (relative stereo)	77 to 80 °C
Cn1cc(C(N)=O)c(Cl)n1	164 to 166 °C
CCCN(CCC)c1c([N+](=O)[O-])cc(C(C)=O)cc1[N+](=O)[O-]	71 to 72 °C
Brc1ccc(C23CC4(c5ccc(Br)cc5)CC(c5ccc(Br)cc5)(C2)CC(c2ccc(Br)cc2)(C3)C4)cc1	354 °C
Cc1ccc2c(c1C)OCC2c1ccc(C(C)C)cc1 (stereo not given)	50 to 51 °C
CCN(CC)c1c(Cl)cc(-n2c(C(F)(F)F)nn(C)c2=S)cc1Cl	128 to 130 °C
NC(=O)c1ccc(-c2nn(Cc3ccccc3)c3ccccc23)o1	259 °C
N#Cc1ncn2c(C(F)(F)F)cc(-c3ccc(OCC(F)(F)F)c(C(F)(F)F)c3)nc12	189 °C
CCOCc1nc2c(N)nc3cc(OCCCCCCNC(=S)NC(C)C)ccc3c2n1CC(C)(C)NC(C)=O	110 to 120 °C
Nc1ccc(-c2cc(=O)c3cccnc3o2)cc1	254 to 255 °C
O=C(O)CC[C@@H](Cc1ccc(OCc2ccccc2)cc1)NC(=O)CCCCCCc1ccccc1	128 to 130 °C
CC(C)CNC(=O)C=CC=Cc1ccc2c(c1)OCO2	156 to 160 °C
Nc1ccc(OC[C@@H]2CCCN2c2ccc3ccccc3n2)cc1	138 to 140 °C
CCCC(C=NNC(C)=O)c1ccc(Cl)cc1Cl (stereo not given)	145 to 147 °C
COc1ccccc1CN1CCN(C)CC1C1=NCCN1 (stereo not given)	168 to 170 °C
CCCCC(CC)CN1C(=O)C(=Cc2cc3sc(-c4ccc(N(c5ccccc5)c5ccccc5)cc4)cc3s2)C(C)=C(C#N)C1=O (stereo not given)	208 to 213 °C

Structure (SMILES)	melting point
CCC(=Nc1ccc2c(c1)C(=O)c1ccc(N=C(CC)N3CCCCC3)cc1C2=O)N1CCCCC1	183 to 185 °C
CCCCc1c2c(nc3cc(F)cc(F)c13)-c1cc3c(c(=O)n1C2)COC(=O)CC3(O)CC (stereo not given)	190 °C
COc1cc(OC)c2c(C)c(CCN3CCN(c4ccccc4F)CC3)c(=O)oc2c1	152 to 153 °C
C=CC(C)(C)C(O)C(Oc1ccc(Cl)cc1)n1ccnc1 (stereo not given)	88 to 90 °C
S=[PH](c1ccccc1)c1ccccc1	134 to 135 °C
CCc1ccc(-c2ccc3c(c2)C=C(C(=O)OC)CCS3(=O)=O)cc1	173 to 176 °C
COc1ccc2cc(-n3c(C)nnc3C)cc(C)c2n1	211 to 213 °C
O=[N+]([O-])c1cc(NC(=S)N2CCCCN2)c(F)cc1Cl	118 to 120 °C
NC(=O)c1cc(Br)c(O)c(Br)n1	261 to 266 °C
COC1Nc2c(ccc(C)c2OC(C)=O)C(=O)N2CCCC12 (stereo not given)	147 to 150 °C
CN(c1ccc2c(c1)CCC2)c1nc(=O)c2cccnc2s1	157 to 160 °C
O=C1COc2ccc(NCC(=O)N3CCC(Cc4ccc(F)cc4)CC3)cc2N1	220 to 223 °C
CCC(O)(C#CC(=O)c1ccc(SC)cc1)CC	49 to 50 °C
CC(C)(O)c1csc(S(N)(=O)=O)c1	125 to 127 °C
CCCc1nc2c(N)nc(C)c(C)c2n1CCCCN(O)C(=O)Nc1ccccc1	159 to 160 °C
CCOC(=O)CC1CCc2[nH]c3ccccc3c2C1 (stereo not given)	122 to 123 °C
Cc1ccc(C2CCN(C(=O)Nc3ccc4nc(CN5CCCC5)ccc4c3)CC2)cc1	214 to 216 °C
CC1(C)CCC(=O)Nc2ccc(Nc3ncc(Cl)c(Nc4ccccc4-c4nccs4)n3)cc21	224 °C
O=C(C=C(c1ccccc1)c1ccccc1)NCCCCc1cccnc1	78 to 80 °C
CCCCN(Cc1ccc(-c2ccccc2-c2nnn[nH]2)cc1)c1ncncc1C(=O)OCC(=O)OC	65 to 80 °C
CCCCC12CCC3=C(CCc4cc(OC)ccc43)C1CCC2=O (stereo not given)	105 to 108 °C
C#CCC(=NO)C1=CCCN(C)C1	55 to 57 °C
CCN(CC)CC1CN=C(NC(=O)Nc2ccccc2)O1 (stereo not given)	148 °C
O=c1c(N2CCNCC2)nc2ccc(F)cc2n1-c1ccccc1	142 to 143 °C
CS(=O)(=O)c1ccc(C(=O)C2C(=O)N(C(N)=O)c3ccc(Cl)cc32)s1 (stereo not given)	212 to 214 °C

Structure (SMILES)	melting point
CC(C)(C)c1ccc2c(O)ccnc2c1	207 to 209 °C
CC1=Nc2ccccc2C=C(c2ccccc2)N1C	144 to 145 °C
CSc1cnn2c(Nc3ccc(F)c(Cl)c3)cc(Cl)nc12	156 to 158 °C
CC(=O)Nc1cccc(-c2ccnc3c(C(=O)c4ccco4)cnn23)c1	195 to 196 °C
COc1cccc2c1CCC(C#N)C2=O (stereo not given)	120 to 122 °C
CC(=O)OCCn1cncc1[N+](=O)[O-]	61 to 62 °C
COc1cc(NC(C)=O)ccc1N1CCN(CCCNc2c(C)c(=O)n(C)c(=O)n2C)CC1	178 to 180 °C
CN1CNC(=S)N(c2ccccc2)C1	175 to 176 °C
CC(C)N1C(=O)C(NC(=O)CCC2CCCCC2)N=C(N(C)C)c2ccccc21 (stereo not given)	209 to 210 °C
Cc1cccc(NC(=O)NC2N=C(c3ccccc3F)c3ccccc3N(Cc3ccc4ccccc4n3)C2=O)c1 (racemic)	224 to 225 °C
Cc1ccc(-c2cc[nH]c2C=O)cc1	149 to 150 °C
COC(=O)N(C)CC#CCn1ccnc1	113 to 115 °C
COC(=O)c1nc(S)n(C(c2ccccc2)c2ccccc2)c1C(=O)OC	154 °C
C[C@@H]1CN(C(=O)N(c2ccccc2)c2ccccc2)[C@@H](C)CN1C(=O)N(c1ccccc1)c1ccccc1	255 to 257 °C
NC(=O)c1ccc2c(c1)S(=O)(=O)c1ccccc1C2=O	282 to 283 °C
O=C(O)COc1ccc(C(=O)C=Cc2ccccc2)c(Cl)c1Cl	190 to 191 °C
Cc1cc(C(=O)c2sc(Nc3ccc(N4CCN(C)CC4)cc3)nc2N)c(C)s1	205 to 206 °C
Cc1cccc(C(=O)Nc2ccc3c(c2)CC(N(C)Cc2ccccn2)C3)c1-c1ccc(C(F)(F)F)cc1 (stereo not given)	105 to 115 °C
O=C1C2CCCCN2C(=S)N1c1ccc(F)cc1F (stereo not given)	159 to 160 °C
Cc1c(Sc2ccc(Cl)cc2)nn(-c2ccc3c(c2)OCO3)c(=O)c1C#N	166 to 168 °C
O=C(O)/C=C/C=C/C=C/C1=Cc2cc(C(F)(F)F)ccc2OC1	208 to 210 °C
CCOc1nc(-c2ccc(OC)c(OC)c2)cc(=Nc2c(C)cc(C)cc2C)n1C	116 to 119 °C
C(=NNc1ccccc1)c1ccccn1	179 °C
CCCc1ccc2ncc(C(=O)NCc3ccc(Cl)cc3)c(O)c2c1	225 to 227 °C
CC(C)Cn1c(=O)c(-c2c(Cl)cccc2Cl)cc2cnc(N)nc21	193 to 195 °C

Reference: a melting point compilation (Tetko et al.; mined from patent text by program, amines drawn as free bases though some values may be those of a salt)
